The values below come from ChEMBL document CHEMBL4651402, “Screening of ~5500 FDA-approved drugs and clinical candidates for anti-SARS-CoV-2 activity” (2021).

The test system of the test is SARS-CoV-2. The test is described as follows: microbe, parasite or virus in culture. Particulars: Severe acute respiratory syndrome coronavirus 2, Vero C1008, 48 h.

SMILES strings stand for the structures.

`C[C@]12CC[C@@H]3c4ccc(OS(=O)(=O)O)cc4CC[C@H]3[C@@H]1CCC2=O` [ESTRONE SULFURIC ACID] displayed an IC50 of over 20 µM. Further, the IC50 (read-out: pIC50 (converted)) is over 20 µM.
With `C[C@]12CC[C@@H]3c4ccc(O)cc4CC[C@H]3[C@@H]1CCC2=O` [ESTRONE], the IC50 is over 20 µM. The IC50 (read-out: pIC50 (converted)) is over 20 µM.
Consider `CCN(CC)CCOc1ccccc1C(=O)CCc1ccccc1` [ETAFENONE], for which the IC50 was over 20 µM. Moreover, the IC50 (read-out: pIC50 (converted)) is over 20 µM.
Take `O=C(Cn1ccnc1[N+](=O)[O-])NCCO` [ETANIDAZOLE]: the IC50 is over 20 µM. Moreover, the IC50 (read-out: pIC50 (converted)) is over 20 µM.
Molecule `CCc1ccccc1-n1c(C)nc2ccccc2c1=O` [ETAQUALONE] registered an IC50 of over 25.1 µM. In addition, the IC50 (read-out: pIC50 (converted)) was over 25.1 µM.
In the case of `CCOC(=O)c1cnc2c(cnn2CC)c1NN=C(C)C` [ETAZOLATE], the IC50 was over 20 µM. Further, the IC50 (read-out: pIC50 (converted)) was over 20 µM.
Molecule `CCC1(c2ccccc2)C(=O)N(COC)C(=O)N(COC)C1=O` [ETEROBARB] registered an IC50 of over 20 µM. The IC50 (read-out: pIC50 (converted)) is over 20 µM.
With `CCOC(=O)Nc1ccc2c(c1)N(C(=O)CCN(CC)CC)c1ccccc1S2` [ETHACIZINE], the IC50 was over 20 µM. Besides, for the setting “read-out: pIC50 (converted)”, the IC50 was over 20 µM.
On to `C=C(CC)C(=O)c1ccc(OCC(=O)O)c(Cl)c1Cl` [ETHACRYNIC ACID], for which the IC50 is over 20 µM. Further, the IC50 (read-out: pIC50 (converted)) was over 20 µM.
The molecule `CCN1C(=O)OC(C)(C)C1=O` [ETHADIONE] gave an IC50 of over 20 µM. In addition, under “read-out: pIC50 (converted)”, the IC50 is over 20 µM.
Turning to `CC[C@@H](CO)NCCN[C@@H](CC)CO` [ETHAMBUTOL], the IC50 is over 20 µM. In addition, where the note is “read-out: pIC50 (converted)”, the IC50 was over 20 µM.
In turn, `CCOc1ccc(Cc2nccc3cc(OCC)c(OCC)cc23)cc1OCC` [ETHAVERINE] had an IC50 of over 20 µM. Under “read-out: pIC50 (converted)”, the IC50 was over 20 µM.
Consider `CCOc1ccccc1C(N)=O` [ETHENZAMIDE], for which the IC50 is over 20 µM. Moreover, the IC50 (read-out: pIC50 (converted)) was over 20 µM.
With `C#C[C@]1(O)CC[C@H]2[C@@H]3CCc4cc(O)ccc4[C@H]3CC[C@@]21C` [ETHINYL ESTRADIOL], the IC50 was over 20 µM. For the same molecule, the IC50 (read-out: pIC50 (converted)) was over 20 µM.
Molecule `CCc1cc(C(N)=S)ccn1` [ETHIONAMIDE] came in with an IC50 of over 20 µM. Under “read-out: pIC50 (converted)”, the IC50 was over 20 µM.
For the molecule `C#C[C@]1(O)CC[C@H]2[C@@H]3CCC4=CC(=O)CC[C@]4(C)[C@H]3CC[C@@]21C` [ETHISTERONE], the IC50 is over 20 µM. In addition, where the note is “read-out: pIC50 (converted)”, the IC50 was over 20 µM.
For `CCOC(=O)C1(c2ccccc2)CCCN(C)CC1` (centres undefined) [ETHOHEPTAZINE], the IC50 was over 20 µM. For the same molecule, the IC50 (read-out: pIC50 (converted)) is over 20 µM.
Molecule `CCN(CC)C(C)CN1c2ccccc2Sc2ccccc21` (centres undefined) [ETHOPROPAZINE] returned an IC50 of over 20 µM. Further, the IC50 (read-out: pIC50 (converted)) was over 20 µM.
Consider `CCC1(C)CC(=O)NC1=O` (centres undefined) [ETHOSUXIMIDE], for which the IC50 is over 20 µM. In addition, the IC50 (read-out: pIC50 (converted)) was over 20 µM.
Molecule `CCN1C(=O)NC(c2ccccc2)C1=O` (centres undefined) [ETHOTOIN] showed an IC50 of over 20 µM. For the same molecule, the IC50 (read-out: pIC50 (converted)) is over 20 µM.
As to `CCOc1ccc(/N=N/c2ccc(N)cc2N)cc1` [ETHOXAZENE], the IC50 was over 20 µM. Besides, the IC50 (read-out: pIC50 (converted)) is over 20 µM.
For the molecule `CCN1[C@@H]2CC[C@H]1C[C@@H](OC(c1ccccc1)c1ccccc1)C2` [ETHYBENZTROPINE], the IC50 is over 20 µM. Also, for the setting “read-out: pIC50 (converted)”, the IC50 was over 20 µM.
For the molecule `CCOc1ccc2nccc([C@@H](O)[C@@H]3C[C@@H]4CCN3C[C@@H]4CC)c2c1` [ETHYLHYDROCUPREINE], the IC50 was over 20 µM. Further, the IC50 (read-out: pIC50 (converted)) is over 20 µM.
On to `CCOc1ccc2c3c1O[C@H]1[C@@H](O)C=C[C@H]4[C@@H](C2)N(C)CC[C@@]341` [ETHYLMORPHINE], for which the IC50 is over 20 µM. For the same molecule, the IC50 (read-out: pIC50 (converted)) was over 20 µM.
As to `CCC(N)C(O)c1ccc(O)c(O)c1` (centres undefined) [ETHYLNOREPINEPHRINE], the IC50 is over 20 µM. In addition, the IC50 (read-out: pIC50 (converted)) is over 20 µM.
On to `CCOC(=O)c1ccc(O)cc1` [ETHYLPARABEN], for which the IC50 is over 20 µM. For the same molecule, the IC50 (read-out: pIC50 (converted)) is over 20 µM.
In the case of `C#C[C@]1(OC(C)=O)CC[C@H]2[C@@H]3CCC4=C[C@@H](OC(C)=O)CC[C@@H]4[C@H]3CC[C@@]21C` [ETHYNODIOL DIACETATE], the IC50 was over 20 µM. Besides, the IC50 (read-out: pIC50 (converted)) is over 20 µM.
In the case of `CCc1cc(Cl)c(OC)c(C(=O)NC[C@@H]2CCCN2CC)c1O` [ETICLOPRIDE], the IC50 was over 20 µM. In addition, the IC50 (read-out: pIC50 (converted)) is over 20 µM.
Take `CCCN(CC)C(CC)C(=O)Nc1c(C)cccc1C` (centres undefined) [ETIDOCAINE]: the IC50 is over 20 µM. The IC50 (read-out: pIC50 (converted)) was over 20 µM.
In turn, `CC(O)(P(=O)(O)O)P(=O)(O)O` [ETIDRONIC ACID] had an IC50 of over 20 µM. Besides, the IC50 (read-out: pIC50 (converted)) was over 20 µM.
`CCc1cccc(CC)c1NC(=O)CN(CC(=O)O)CC(=O)O` [ETIFENIN]: the IC50 is over 20 µM. Further, the IC50 (read-out: pIC50 (converted)) is over 20 µM.
`CCNC1=Nc2ccc(Cl)cc2C(C)(c2ccccc2)O1` (centres undefined) [ETIFOXINE] yielded an IC50 of over 20 µM. For the same molecule, where the note is “read-out: pIC50 (converted)”, the IC50 was over 20 µM.
`CCNCC(O)c1cccc(O)c1` (centres undefined) [ETILEFRINE] yielded an IC50 of over 20 µM. In addition, the IC50 (read-out: pIC50 (converted)) is over 20 µM.
The molecule `C#CCN/C(=N\C#N)NCCSCc1nc[nH]c1C` [ETINTIDINE] came in with an IC50 of over 20 µM. For the same molecule, the IC50 (read-out: pIC50 (converted)) is over 20 µM.
Molecule `CCOc1ccc(NC(=S)Nc2ccc(OCC)cc2)cc1` [ETOCARLIDE] displayed an IC50 of over 20 µM. The IC50 (read-out: pIC50 (converted)) is over 20 µM.
For the molecule `CCc1cccc2c3c([nH]c12)C(CC)(CC(=O)O)OCC3` (centres undefined) [ETODOLAC], the IC50 is over 20 µM. Further, the IC50 (read-out: pIC50 (converted)) is over 20 µM.
`O=C(OCCOCCO)c1ccccc1Nc1cccc(C(F)(F)F)c1` [ETOFENAMATE] displayed an IC50 of over 20 µM. In addition, the IC50 (read-out: pIC50 (converted)) was over 20 µM.
The molecule `CCCCN/C(=N\CC)NC(=N)N` [ETOFORMIN] had an IC50 of over 20 µM. Further, the IC50 (read-out: pIC50 (converted)) was over 20 µM.
For `Cn1c(=O)c2c(ncn2CCO)n(C)c1=O` [ETOFYLLINE], the IC50 was over 20 µM. For the same molecule, for the setting “read-out: pIC50 (converted)”, the IC50 was over 20 µM.
In turn, `COc1cc([C@@H]2c3cc4c(cc3[C@@H](O[C@@H]3O[C@@H]5CO[C@@H](C)O[C@H]5[C@H](O)[C@H]3O)[C@H]3COC(=O)[C@H]23)OCO4)cc(OC)c1O` [ETOPOSIDE] displayed an IC50 of over 20 µM. Also, under “read-out: pIC50 (converted)”, the IC50 is over 20 µM.
Turning to `CCc1nc(N)nc(N)c1-c1ccc(Cl)c(Cl)c1` [ETOPRINE], the IC50 was over 20 µM. Also, the IC50 (read-out: pIC50 (converted)) was over 20 µM.
Molecule `Cc1ccc(-c2ncc(Cl)cc2-c2ccc(S(C)(=O)=O)cc2)cn1` [ETORICOXIB] yielded an IC50 of over 20 µM. The IC50 (read-out: pIC50 (converted)) was over 20 µM.
Regarding `CCOCCOc1ccccc1C(N)=O` [ETOSALAMIDE], the IC50 is over 20 µM. Moreover, the IC50 (read-out: pIC50 (converted)) is over 20 µM.
`CCOC(=O)/C=C(C)/C=C/C=C(C)/C=C/c1c(C)cc(OC)c(C)c1C` [ETRETINATE] came in with an IC50 of over 20 µM. Further, the IC50 (read-out: pIC50 (converted)) was over 20 µM.
In turn, `CCC(N)Cc1c[nH]c2ccccc12` (centres undefined) [ETRYPTAMINE] gave an IC50 of over 20 µM. Further, the IC50 (read-out: pIC50 (converted)) was over 20 µM.
As for `CC12CCC(CC1)C(C)(C)O2` [EUCALYPTOL], the IC50 was over 20 µM. Further, the IC50 (read-out: pIC50 (converted)) is over 20 µM.
In turn, `CC1CC(OC(=O)C(O)c2ccccc2)CC(C)(C)N1C` (centres undefined) [EUCATROPINE] showed an IC50 of over 20 µM. Moreover, for the setting “read-out: pIC50 (converted)”, the IC50 is over 20 µM.
